Assay results taken from patent US20250179059A1 (The Regents of the University of California, priority 2021, published 2025).
Like-named read-outs stand apart in the source and are kept apart here.

Key:
[1] = target: T1, human BRD4 bromodomain II (Homo sapiens, UniProt O60885); experiment: Bromodomain binding assay (AlphaScreen), BRD4 BDII
T1 construct: human BRD4 bromodomain II [based on Genbank NM_058243, residues 349-460]; host or cells: E. coli
Summary of the method: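 Tagged BRD4 BDI or BDII constructs, expressed in E. coli, competed against a K5/K8/K12/K16-acetylated biotin-H4 peptide. Proximity signal between bead pairs after room-temperature incubations gave concentration-response curves, from which IC50 was derived.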

[2] = test system: human SKM-1 acute myeloid leukemia cells; experiment: SKM-1 antiproliferation cell-based assay (ATPlite); conditions: Homo sapiens
Summary of the method: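 Log-phase cells in RPMI 1640/15% FBS were seeded at 34722 cells/mL and exposed for 4 days to nine-concentration DMSO serial dilutions in triplicate. Viability was read as ATP luminescence (ATPlite 1step), and IC50 values came from variable-slope non-linear regression.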

[3] = AlphaScreen assay, Table C2, read-out: BRD4 BDII IC50
[4] = SKM-1, 96 h, SKM-1 antiproliferation assay, 4 days, Table C2
[5] = BRD4 BDII AlphaScreen assay, read-out: BRD4 BD2 IC50
[6] = SKM-1, SKM-1 antiproliferation assay

SMILES	IC50 [1, 3]	GI50 [2, 4]	IC50 [1, 5]	GI50 [2, 6]
O=c1ccccn1-c1ccc(-c2cc(F)cc(-c3ccnc(N4CCNCC4)c3)c2O)cc1Cl [Example 502, 1-(3-chloro-5′-fluoro-2′-hydroxy-3′-(2-(piperazin-1-yl)pyridin-4-yl)-[1,1′-biphenyl]-4-yl)pyridin-2(1H)-one]	> 100 nM	≥ 3000 nM		
COc1ncc(-c2cc(F)cc(-c3ccc(-n4ccn(C)c4=O)c(F)c3)c2O)cc1N1CCN(C(C)(C)C)CC1 [Example 939, 1-(3′-(5-(4-(tert-butyl)piperazin-1-yl)-6-methoxypyridin-3-yl)-3,5′-difluoro-2′-hydroxy-[1,1′-biphenyl]-4-yl)-3-methyl-1H-imidazol-2(3H)-one]			1 to 10 nM	0.3 to 30 nM
[2H]C([2H])([2H])n1ccn(-c2ccc(-c3cc(C)nc(-c4cccc(N5CCN(C(C)(C)C)CC5)c4)c3O)cc2Cl)c1=O [Example 991, 1-(4-(2-(3-(4-(tert-Butyl)piperazin-1-yl)phenyl)-3-hydroxy-6-methylpyridin-4-yl)-2-chlorophenyl)-3-(methyl-d3)-1,3-dihydro-2H-imidazol-2-one]			1 to 10 nM	0.3 to 30 nM
CN1CCC12CCCN(c1cc(-c3cc(F)cc(-c4ccc(-n5ccn(C)c5=O)c(Cl)c4)c3O)ccn1)C2 (stereo not drawn) [Example 693, 1-(3-chloro-5′-fluoro-2′-hydroxy-3′-(2-(1-methyl-1,6-diazaspiro[3.5]nonan-6-yl)pyridin-4-yl)-[1,1′-biphenyl]-4-yl)-3-methyl-1H-imidazol-2(3H)-one]	0.01 to 1 nM	0.3 to 30 nM		
Cn1ccn(-c2ccc(-c3cc(F)cc(-c4ccnc(N5CCN(CCCF)CC5)c4)c3O)cc2Cl)c1=O [Example 527, 1-(3-chloro-5′-fluoro-3′-(2-(4-(3-fluoropropyl)piperazin-1-yl)pyridin-4-yl)-2′-hydroxy-[1,1′-biphenyl]-4-yl)-3-methyl-1H-imidazol-2(3H)-one]	0.01 to 1 nM	0.3 to 30 nM		
Cc1cc(-c2ccc(-n3ccn(C)c3=O)c(Cl)c2)c(O)c(-c2cc(N3CCN[C@H](C)C3)c3nccnc3c2)c1 [Example 574]	0.01 to 1 nM	0.3 to 30 nM		
Cn1ccn(-c2ccc(-c3cc(F)cc(-c4ccnc(N5CCN[C@H](CN)C5)c4)c3O)cc2Cl)c1=O [Example 680, (R)-1-(3′-(2-(3-(aminomethyl)piperazin-l-yl)pyridin-4-yl)-3-chloro-5′-fluoro-2′-hydroxy-[1,1′-biphenyl]-4-yl)-3-methyl-1H-imidazol-2(3H)-one]	0.01 to 1 nM	30 to 300 nM		
O=C1CCCN1c1ccc(-c2cccc(-c3cncc(N4CCNCC4)c3)c2O)cc1Cl [Example 262, 1-(3-chloro-2′-hydroxy-3′-(5-(piperazin-l-yl)pyridin-3-yl)-[1,1′-biphenyl]-4-yl)pyrrolidin-2-one]	1 to 10 nM	30 to 300 nM		
O=C1CCCN1c1ccc(-c2cccc(-c3ccnc(N4CCNCC4)c3)c2O)cc1Cl [Example 209, 1-(3-chloro-2′-hydroxy-3′-(2-(piperazin-1-yl)pyridin-4-yl)-[1,1′-biphenyl]-4-yl)pyrrolidin-2-one]	1 to 10 nM	30 to 300 nM		

Next, values leading:

IC50 [1, 3]	GI50 [2, 4]	IC50 [1, 5]	GI50 [2, 6]	SMILES
> 100 nM	≥ 3000 nM			O=c1[nH]c2ccc(-c3cc(F)cc(-c4ccnc(N5CCNCC5)c4)c3O)cc2[nH]1 [Example 431, 5-(5-fluoro-2-hydroxy-3-(2-(piperazin-1-yl)pyridin-4-yl)phenyl)-1H-benzo[d]imidazol-2(3H)-one]
0.01 to 1 nM	30 to 300 nM			C[C@@H]1CN(c2cc(-c3cc(F)cc(-c4ccc(-n5ccn(C)c5=O)c(Cl)c4)c3O)cc3[nH]c(=O)[nH]c23)CCN1 [Example 603, (R)-6-(3′-chloro-5-fluoro-2-hydroxy-4′-(3-methyl-2-oxo-2,3-dihydro-1H-imidazol-1-yl)-[1,1′-biphenyl]-3-yl)-4-(3-methylpiperazin-1-yl)-1H-benzo[d]imidazol-2(3H)-one]
1 to 10 nM	30 to 300 nM			O=C1CCCN1c1ccc(-c2cc(Cl)cc(-c3ccnc(N4CCNCC4)c3)c2O)cc1Cl [Example 274, 1-(3,5′-dichloro-2′-hydroxy-3′-(2-(piperazin-1-yl)pyridin-4-yl)-[1,1′-biphenyl]-4-yl)pyrrolidin-2-one]
10 to 100 nM	300 to 3000 nM			O=C1CCCN1c1ccc(-c2cccc(-c3ccnc(N4CC5(CNC5)C4)c3)c2O)cc1Cl [Example 271, 1-(3′-(2-(2,6-diazaspiro[3.3]heptan-2-yl)pyridin-4-yl)-3-chloro-2′-hydroxy-[1,1′-biphenyl]-4-yl)pyrrolidin-2-one]
10 to 100 nM	300 to 3000 nM			O=C1NCCN1c1ccc(-c2cc(F)cc(-c3ccnc(N4CCNCC4)c3)c2O)cc1Cl [Example 373, 1-(3-chloro-5′-fluoro-2′-hydroxy-3′-(2-(piperazin-1-yl)pyridin-4-yl)-[1,1′-biphenyl]-4-yl)imidazolidin-2-one]
> 100 nM	300 to 3000 nM			Cc1cc(-c2cc(F)cc(-c3ccnc(N4CCNCC4)c3)c2O)cc(Cl)c1N1CCN(C)C1=O [Example 385, 1-(3-chloro-5′-fluoro-2′-hydroxy-5-methyl-3′-(2-(piperazin-1-yl)pyridin-4-yl)-[1,1′-biphenyl]-4-yl)-3-methylimidazolidin-2-one]
1 to 10 nM	30 to 300 nM			CC(=O)Nc1ccc(-c2cccc(-c3ccc(N4CCN(C)C4=O)c(Cl)c3)c2O)cc1N1CCNCC1 [Example 330, N-(3″-chloro-2′-hydroxy-4″-(3-methyl-2-oxoimidazolidin-1-yl)-3-(piperazin-1-yl)-[1,1′:3′,1″-terphenyl]-4-yl)acetamide]
0.01 to 1 nM	0.3 to 30 nM			Cn1ccn(-c2ccc(-c3cc(F)cc(-c4ccnc(N5CCN(CCC6CC6)CC5)c4)c3O)cc2Cl)c1=O [Example 681, 1-(3-chloro-3′-(2-(4-(2-cyclopropylethyl)piperazin-1-yl)pyridin-4-yl)-5′-fluoro-2′-hydroxy-[1,1′-biphenyl]-4-yl)-3-methyl-1H-imidazol-2(3H)-one]
		1 to 10 nM	30 to 300 nM	Cc1ncc(-c2cc(F)cc(-c3ccc(-n4ccn(C)c4=O)c(Cl)c3)c2O)cc1N1CC(C)(C)[C@@](C)(O)C1 [Example 885]
0.01 to 1 nM	30 to 300 nM			CC(=O)NC1(C)CCN(c2cc(-c3cc(F)cc(-c4ccc(-n5ccn(C)c5=O)c(Cl)c4)c3O)ccn2)C1 (stereo not drawn) [Example 782, N-(1-(4-(3′-chloro-5-fluoro-2-hydroxy-4′-(3-methyl-2-oxo-2,3-dihydro-1H-imidazol-1-yl)-[1,1′-biphenyl]-3-yl)pyridin-2-yl)-3-methylpyrrolidin-3-yl)acetamide]
0.01 to 1 nM	0.3 to 30 nM			CN[C@H]1CCCN(c2cncc(-c3cc(F)cc(-c4ccc(-n5ccn(C)c5=O)c(Cl)c4)c3O)c2)C1 [Example 478, (S)-1-(3-chloro-5′-fluoro-2′-hydroxy-3′-(5-(3-(methylamino)piperidin-1-yl)pyridin-3-yl)-[1,1′-biphenyl]-4-yl)-3-methyl-1H-imidazol-2(3H)-one]
		1 to 10 nM	0.3 to 30 nM	Cc1cc(-c2ccc(-n3ccn(C)c3=O)c(Cl)c2)c(O)c(-c2cc(N3CCN(C(C)(C)C)CC3)n(C)c(=O)c2)n1 [Example 1009, 6′-(4-(tert-butyl)piperazin-1-yl)-4-(3-chloro-4-(3-methyl-2-oxo-2,3-dihydro-1H-imidazol-1-yl)phenyl)-3-hydroxy-1′,6-dimethyl-[2,4′-bipyridin]-2′(1′H)-one]
